The values below come from ChEMBL document CHEMBL5705888, “Substrate specificity and inhibitors of LRRK2, a protein kinase mutated in Parkinson's disease” (Biochem J, 2009).

For orientation: inhibition means how much of the control response was suppressed.

The target in test [1] is Mitogen-activated protein kinase 1 (Homo sapiens) (UniProt P28482). Kind of test: Inhibition of ERK2 (unknown origin) at 1 uM incubated for 30 mins in presence of [gamma-33P]ATP by multidrop micro reagent based assay relative to control; values are per cent of control.
The species entered for a further test is Homo sapiens. Kind of test: Inhibition of CDK2/cyclin A (unknown origin) at 1 uM incubated for 30 mins in presence of [gamma-33P]ATP by multidrop micro reagent based assay relative to control; values are per cent of control.
In test [2] the target is T1, Serine/threonine-protein kinase BRSK2 (Homo sapiens) (UniProt Q8IWQ3).
T1 sequence (whole entry): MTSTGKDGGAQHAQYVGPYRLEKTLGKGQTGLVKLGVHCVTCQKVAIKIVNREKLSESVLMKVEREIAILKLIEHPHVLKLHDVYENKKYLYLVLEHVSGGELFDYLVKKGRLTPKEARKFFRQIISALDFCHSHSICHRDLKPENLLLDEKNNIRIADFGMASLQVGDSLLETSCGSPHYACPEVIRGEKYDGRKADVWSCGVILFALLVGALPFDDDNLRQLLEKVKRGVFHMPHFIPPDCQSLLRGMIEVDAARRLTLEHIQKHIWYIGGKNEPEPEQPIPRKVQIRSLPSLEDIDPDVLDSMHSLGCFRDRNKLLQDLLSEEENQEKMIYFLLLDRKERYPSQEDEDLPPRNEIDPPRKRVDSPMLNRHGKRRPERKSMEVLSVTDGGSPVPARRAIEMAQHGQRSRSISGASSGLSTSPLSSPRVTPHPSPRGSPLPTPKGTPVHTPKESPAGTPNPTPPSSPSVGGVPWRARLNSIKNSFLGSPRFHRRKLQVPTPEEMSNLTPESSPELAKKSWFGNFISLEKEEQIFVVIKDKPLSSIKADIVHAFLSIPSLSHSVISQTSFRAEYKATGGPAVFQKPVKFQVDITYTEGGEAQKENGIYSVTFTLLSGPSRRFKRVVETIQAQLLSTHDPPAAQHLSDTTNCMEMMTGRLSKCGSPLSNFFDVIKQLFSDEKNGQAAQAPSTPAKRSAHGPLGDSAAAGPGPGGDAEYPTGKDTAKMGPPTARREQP
Kind of test: Inhibition of BRSK2 (unknown origin) at 10 uM incubated for 30 mins in presence of [gamma-33P]ATP by multidrop micro reagent based assay relative to control.

The target of test [3] is T2, Mitogen-activated protein kinase kinase kinase kinase 2 (Homo sapiens) (UniProt Q12851).
T2 sequence (whole entry): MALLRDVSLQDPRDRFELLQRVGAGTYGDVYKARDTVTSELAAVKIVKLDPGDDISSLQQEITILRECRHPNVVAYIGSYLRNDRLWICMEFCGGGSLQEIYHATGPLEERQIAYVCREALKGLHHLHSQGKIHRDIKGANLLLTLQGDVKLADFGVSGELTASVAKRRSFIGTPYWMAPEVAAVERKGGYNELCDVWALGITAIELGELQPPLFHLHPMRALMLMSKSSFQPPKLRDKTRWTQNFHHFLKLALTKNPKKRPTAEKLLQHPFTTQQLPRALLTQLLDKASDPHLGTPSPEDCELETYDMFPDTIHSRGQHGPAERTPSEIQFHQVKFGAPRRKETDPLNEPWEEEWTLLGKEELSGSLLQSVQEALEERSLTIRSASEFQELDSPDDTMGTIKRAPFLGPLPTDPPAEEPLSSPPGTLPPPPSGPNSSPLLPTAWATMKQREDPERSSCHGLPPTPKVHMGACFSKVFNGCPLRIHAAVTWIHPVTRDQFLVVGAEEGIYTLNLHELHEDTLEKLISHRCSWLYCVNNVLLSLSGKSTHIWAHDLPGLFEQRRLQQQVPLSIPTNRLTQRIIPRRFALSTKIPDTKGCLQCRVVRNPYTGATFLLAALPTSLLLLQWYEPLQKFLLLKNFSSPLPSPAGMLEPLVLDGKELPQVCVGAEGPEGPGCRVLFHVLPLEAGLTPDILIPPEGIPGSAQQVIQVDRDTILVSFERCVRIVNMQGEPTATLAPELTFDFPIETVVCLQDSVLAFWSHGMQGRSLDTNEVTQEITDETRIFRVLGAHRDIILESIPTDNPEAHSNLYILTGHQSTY
Kind of test: Inhibition of GCK (unknown origin) at 10 uM incubated for 30 mins in presence of [gamma-33P]ATP by multidrop micro reagent based assay relative to control; values are per cent of control.

Test [4] addresses MAP kinase-interacting serine/threonine-protein kinase 2 (Homo sapiens) (UniProt Q9HBH9). Put plainly: Inhibition of MNK2 (unknown origin) at 10 uM incubated for 30 mins in presence of [gamma-33P]ATP by multidrop micro reagent based assay relative to control; values are per cent of control.
The target of test [5] is T3, Eukaryotic elongation factor 2 kinase (Homo sapiens) (UniProt O00418).
T3 sequence (whole entry): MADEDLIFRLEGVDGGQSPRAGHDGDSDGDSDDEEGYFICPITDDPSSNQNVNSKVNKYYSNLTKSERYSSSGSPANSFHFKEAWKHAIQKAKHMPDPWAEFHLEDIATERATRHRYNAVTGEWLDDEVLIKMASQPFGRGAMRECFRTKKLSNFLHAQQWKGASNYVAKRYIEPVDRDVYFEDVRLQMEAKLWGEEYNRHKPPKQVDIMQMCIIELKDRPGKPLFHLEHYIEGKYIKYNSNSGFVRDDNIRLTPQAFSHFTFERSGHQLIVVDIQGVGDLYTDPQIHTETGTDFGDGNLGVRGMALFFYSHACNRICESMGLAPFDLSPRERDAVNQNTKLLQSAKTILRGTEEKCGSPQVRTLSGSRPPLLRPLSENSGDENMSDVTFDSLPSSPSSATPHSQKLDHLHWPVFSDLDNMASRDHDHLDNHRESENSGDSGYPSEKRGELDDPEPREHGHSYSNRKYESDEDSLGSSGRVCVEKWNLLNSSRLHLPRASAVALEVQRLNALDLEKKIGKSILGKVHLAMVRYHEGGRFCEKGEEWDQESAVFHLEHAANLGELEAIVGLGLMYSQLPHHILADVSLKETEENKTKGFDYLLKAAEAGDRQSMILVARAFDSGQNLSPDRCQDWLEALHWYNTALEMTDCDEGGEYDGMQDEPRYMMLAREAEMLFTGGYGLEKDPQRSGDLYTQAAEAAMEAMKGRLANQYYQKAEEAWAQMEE
Kind of test: Inhibition of EF2K (unknown origin) at 10 uM incubated for 30 mins in presence of [gamma-33P]ATP by multidrop micro reagent based assay relative to control; values are per cent of control.

The target of test [6] is Homeodomain-interacting protein kinase 2 (Homo sapiens) (UniProt Q9H2X6). Put plainly: Inhibition of HIPK2 (unknown origin) at 10 uM incubated for 30 mins in presence of [gamma-33P]ATP by multidrop micro reagent based assay relative to control; values are per cent of control.
Sequence of Homeodomain-interacting protein kinase 2 (Homo sapiens) (Q9H2X6 whole entry, looked up): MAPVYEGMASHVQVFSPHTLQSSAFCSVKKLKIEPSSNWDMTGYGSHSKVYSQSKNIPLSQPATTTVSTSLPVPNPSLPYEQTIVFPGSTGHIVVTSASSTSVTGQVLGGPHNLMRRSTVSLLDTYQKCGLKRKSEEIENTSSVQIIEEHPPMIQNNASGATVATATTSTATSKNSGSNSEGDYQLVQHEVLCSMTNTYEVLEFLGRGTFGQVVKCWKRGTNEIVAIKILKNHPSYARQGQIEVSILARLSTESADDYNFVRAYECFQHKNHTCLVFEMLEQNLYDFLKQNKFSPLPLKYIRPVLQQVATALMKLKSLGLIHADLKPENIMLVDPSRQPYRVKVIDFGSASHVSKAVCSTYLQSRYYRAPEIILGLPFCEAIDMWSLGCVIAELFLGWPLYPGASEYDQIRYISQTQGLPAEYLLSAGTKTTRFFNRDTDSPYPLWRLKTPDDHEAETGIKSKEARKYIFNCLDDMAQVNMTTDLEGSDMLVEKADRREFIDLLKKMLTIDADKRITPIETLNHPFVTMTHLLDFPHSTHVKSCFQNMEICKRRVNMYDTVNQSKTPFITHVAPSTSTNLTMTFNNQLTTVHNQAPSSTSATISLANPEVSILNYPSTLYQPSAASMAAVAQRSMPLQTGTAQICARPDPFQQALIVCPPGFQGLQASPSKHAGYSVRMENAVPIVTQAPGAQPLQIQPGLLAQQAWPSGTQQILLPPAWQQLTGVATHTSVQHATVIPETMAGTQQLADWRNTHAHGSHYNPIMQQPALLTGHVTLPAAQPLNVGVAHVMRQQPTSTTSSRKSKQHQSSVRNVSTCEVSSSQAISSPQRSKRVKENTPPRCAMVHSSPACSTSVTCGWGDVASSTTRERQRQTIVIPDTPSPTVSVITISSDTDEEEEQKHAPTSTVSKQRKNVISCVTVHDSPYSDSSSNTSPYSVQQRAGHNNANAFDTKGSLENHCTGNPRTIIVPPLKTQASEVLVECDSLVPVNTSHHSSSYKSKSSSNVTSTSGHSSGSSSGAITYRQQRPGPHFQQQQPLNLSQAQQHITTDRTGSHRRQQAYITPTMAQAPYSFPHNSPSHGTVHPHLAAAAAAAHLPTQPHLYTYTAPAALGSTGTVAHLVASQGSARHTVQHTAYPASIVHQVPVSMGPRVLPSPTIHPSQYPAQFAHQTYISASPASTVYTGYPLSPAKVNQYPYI

Sequence of Mitogen-activated protein kinase 1 (Homo sapiens) (P28482 whole entry): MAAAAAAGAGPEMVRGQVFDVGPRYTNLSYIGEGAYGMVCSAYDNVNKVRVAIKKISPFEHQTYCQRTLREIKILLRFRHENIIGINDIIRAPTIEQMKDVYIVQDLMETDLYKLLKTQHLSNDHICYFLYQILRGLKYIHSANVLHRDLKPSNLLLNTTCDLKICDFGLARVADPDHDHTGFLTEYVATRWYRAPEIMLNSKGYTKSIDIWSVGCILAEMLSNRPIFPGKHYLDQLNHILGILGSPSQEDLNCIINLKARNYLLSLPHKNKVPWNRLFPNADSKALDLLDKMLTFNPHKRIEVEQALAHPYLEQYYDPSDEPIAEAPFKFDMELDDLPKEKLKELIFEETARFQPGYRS
Sequence of MAP kinase-interacting serine/threonine-protein kinase 2 (Homo sapiens) (Q9HBH9 whole entry, looked up): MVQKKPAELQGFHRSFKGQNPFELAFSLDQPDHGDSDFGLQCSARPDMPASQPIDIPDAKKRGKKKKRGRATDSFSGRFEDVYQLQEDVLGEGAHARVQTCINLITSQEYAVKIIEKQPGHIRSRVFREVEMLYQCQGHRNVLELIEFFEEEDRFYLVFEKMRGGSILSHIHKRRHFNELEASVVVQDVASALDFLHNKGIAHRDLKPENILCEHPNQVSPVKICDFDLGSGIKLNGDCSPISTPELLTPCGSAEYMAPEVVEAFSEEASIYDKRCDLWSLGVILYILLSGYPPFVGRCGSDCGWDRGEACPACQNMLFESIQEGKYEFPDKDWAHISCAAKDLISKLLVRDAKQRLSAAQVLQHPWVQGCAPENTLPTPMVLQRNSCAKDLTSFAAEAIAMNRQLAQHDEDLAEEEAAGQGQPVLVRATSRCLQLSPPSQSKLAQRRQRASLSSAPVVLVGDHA

Consider `CC1=C(C(=O)Nc2cc3cn[nH]c3cc2F)C(c2ccc(C(F)(F)F)cc2)CC(=O)N1` (centres undefined), for which the values for the residual activity (in test [1]; in the test listed under Homo sapiens) were 94% and 49%, respectively.

In the case of `C[C@@H](N)[C@H]1CC[C@H](C(=O)Nc2ccncc2)CC1`, the inhibition in test [2] was found to be 43%. The residual activity in test [3] was determined as 89%; in test [4], 44%; in test [5], 81%; in test [6], 104%.

On to `O=S(=O)(c1cccc2cnccc12)N1CCCNCC1` [FASUDIL], for which the inhibition in test [2] turned out to be 38%. Further, the residual activity in test [3] turned out to be 55%; in test [4], 27%; in test [5], 120%; in test [6] it was 127%.

Take `CCn1c(-c2nonc2N)nc2cnc(Oc3cccc(NC(=O)c4ccc(OCCN5CCOCC5)cc4)c3)cc21` [GSK-269962A]: the residual activity in test [1] came out at 105%; in the test listed under Homo sapiens, 50%.
